In BigSolDB 2.1:

O=Cc1ccc(C(=O)O)cc1
solubility (mole fraction)
Conditions	283.15 K	288.15 K	293.15 K	298.15 K	303.15 K	308.15 K	313.15 K	318.15 K	323.15 K
in NMP	0.0654	0.0767	0.0897	0.104	0.121	0.14	0.161	0.184	0.211
in ethanol	0.00815	0.00973	0.0115	0.0134	0.0155	0.0181	0.0211	0.0246	0.028
in isopropanol	0.00498	0.00612	0.00727	0.00867	0.0103	0.0121	0.014	0.0163	0.0185
in methanol	0.00781	0.00899	0.00999	0.0115	0.0129	0.0144	0.0163	0.0178	0.02
in water	2.15e-05	2.83e-05	3.61e-05	4.64e-05	5.91e-05	7.67e-05	9.57e-05	0.00012	0.000148
